In PubChem BioAssay (NCI) one finds TGI and GI50 data, which are given here for eight compounds.

Values joined by “and” are separate entries in the source; they are usually repeats but may differ in a detail not shown here. Equal values may be shown once.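 96-well plates; 48 h exposure; 5 concentrations. Endpoints by linear interpolation between flanking doses. Not reached: highest tested concentration assigned. GI50 is the concentration that inhibits growth by half. At the TGI there is no net growth.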

Among the test systems are ACHN renal; HOP-62 NSCLC; HT29 colon; M14 melanoma; MDA-MB-435; OVCAR-5 ovarian; PC-3 prostate; SF-539 CNS; SNB-19 CNS; UACC-257 melanoma.
What all share (assay): NCI anticancer screen, dose series, 48 h

Consider `O=C1c2ccccc2N1C(=O)c1ccccc1[N+](=O)[O-]`, for which the TGI in the assay on ACHN renal, in the assay with HOP-62 NSCLC, in the assay with HT29 colon, in the assay on M14 melanoma, with MDA-MB-435 and in the assay with OVCAR-5 ovarian was over 100 µM each time. Also, the TGI with PC-3 prostate, with SF-539 CNS, in the assay with SNB-19 CNS and in the assay on UACC-257 melanoma was over 100 µM in each case.
On to `Nc1cc(C(F)(F)F)c(-c2nc(N3CCOCC3)nc(N3CCOCC3)n2)cn1`, for which the GI50 with ACHN renal was 0.403 µM; in the assay with HOP-62 NSCLC, 0.643 µM; in the assay on HT29 colon, 0.214 µM; in the assay with M14 melanoma it was 0.401 µM; in the assay with MDA-MB-435, 0.398 µM; in the assay on OVCAR-5 ovarian it was 0.192 µM. The GI50 with PC-3 prostate was 0.258 µM; in the assay on SF-539 CNS, 0.539 µM; in the assay with SNB-19 CNS it was 2.11 µM; in the assay with UACC-257 melanoma it was 0.293 µM. Also, the TGI in the assay on ACHN renal is over 100 µM; with HOP-62 NSCLC, 16.2 µM; with HT29 colon, 36 µM; in the assay with M14 melanoma, 14.1 µM; with MDA-MB-435 it was 5.15 µM; with OVCAR-5 ovarian it was over 100 µM. In addition, the TGI with PC-3 prostate is over 100 µM; in the assay on SF-539 CNS, 3.54 µM; in the assay on SNB-19 CNS, 44.5 µM; in the assay on UACC-257 melanoma, 2.98 µM.
As to `O=C1NC(c2ccccc2Cl)Nc2ccccc21` (stereo not drawn), the TGI was over 100 µM in the assay with ACHN renal; over 100 µM with HOP-62 NSCLC; over 100 µM in the assay on HT29 colon; over 100 µM in the assay on M14 melanoma; 4.76 µM in the assay with MDA-MB-435; over 100 µM with OVCAR-5 ovarian. Besides, the TGI in the assay with PC-3 prostate was over 72.6 µM; in the assay on SF-539 CNS, 32.6 µM; in the assay on SNB-19 CNS, over 74 µM; with UACC-257 melanoma, over 100 µM.
With `O=C(CCN1CCOCC1)Nc1ccc(Cn2nnc3c2C(=O)c2nnn(Cc4ccc(NC(=O)CCN5CCOCC5)cc4)c2C3=O)cc1`, the GI50 in the assay with ACHN renal was over 100 µM; in the assay with HOP-62 NSCLC it was 57.7 µM; with HT29 colon, 1.24 µM; with M14 melanoma, 6.74 µM; in the assay with MDA-MB-435, 0.324 µM; in the assay on OVCAR-5 ovarian, over 100 µM. Moreover, the figures for the GI50 in the assay on SF-539 CNS, in the assay on SNB-19 CNS and in the assay with UACC-257 melanoma were 0.913 µM, 1.56 µM and 1.64 µM, respectively. The TGI was over 100 µM in the assay with ACHN renal; over 100 µM in the assay on HOP-62 NSCLC; over 100 µM in the assay with HT29 colon; over 23.1 µM in the assay with M14 melanoma; 0.799 µM in the assay on MDA-MB-435; over 100 µM in the assay on OVCAR-5 ovarian. Further, the TGI in the assay with PC-3 prostate was over 100 µM; in the assay on SF-539 CNS, 5.11 µM; in the assay with SNB-19 CNS it was 3.07 µM; in the assay with UACC-257 melanoma, 3.57 µM.
For the compound `COc1nc(N)nc2nc[nH]c12`, the GI50 in the assay with ACHN renal was 454 µM and 381 µM; in the assay with HOP-62 NSCLC, 576 µM and 582 µM; with HT29 colon it was over 800 µM; in the assay on M14 melanoma, 772 µM and 585 µM; with MDA-MB-435, over 801 µM; in the assay with OVCAR-5 ovarian it was 401 µM and > 728 µM. Further, the results for the GI50 in the assay on SF-539 CNS, in the assay on SNB-19 CNS and with UACC-257 melanoma were over 800 µM, over 1000 µM and over 1000 µM, respectively. Moreover, the TGI is 500 µM and 800 µM and > 1000 µM in the assay with ACHN renal; 180 µM and 800 µM and > 923 µM in the assay on HOP-62 NSCLC; 500 µM and > 800 µM and > 1000 µM in the assay with HT29 colon; 500 µM and 800 µM and > 1000 µM with M14 melanoma; over 1000 µM with MDA-MB-435; 491 µM and 800 µM and > 1000 µM with OVCAR-5 ovarian. In addition, the TGI with PC-3 prostate was 500 µM and > 1000 µM; in the assay on SF-539 CNS, 500 µM and > 800 µM and > 1000 µM; with SNB-19 CNS it was over 1000 µM; in the assay on UACC-257 melanoma, 500 µM and > 800 µM and > 1000 µM.
`Cc1cccc(Oc2ccc(Nc3ncnc4ccc(NC(=O)CN(C)C)cc34)cc2Cl)c1`: the GI50 was 0.804 µM with ACHN renal; 1.89 µM with HOP-62 NSCLC; 1.76 µM in the assay with HT29 colon; 1.71 µM in the assay on M14 melanoma; 1.67 µM in the assay with MDA-MB-435; 2.98 µM in the assay with OVCAR-5 ovarian. Further, the GI50 in the assay on PC-3 prostate was 2.02 µM; in the assay on SF-539 CNS it was 1.82 µM; in the assay with SNB-19 CNS, 2.11 µM; with UACC-257 melanoma, 1.71 µM. The TGI with ACHN renal came to 4 µM; with HOP-62 NSCLC, 4.16 µM; in the assay with HT29 colon, 3.77 µM; with M14 melanoma it was 3.5 µM; in the assay on MDA-MB-435, 3.14 µM; in the assay on OVCAR-5 ovarian it was 12.9 µM. In addition, the TGI in the assay on PC-3 prostate is 6.32 µM; in the assay on SF-539 CNS, 3.42 µM; in the assay with SNB-19 CNS, 6.35 µM; in the assay on UACC-257 melanoma, 3.3 µM.
For `O=C1NC(=NCc2cccs2)O/C1=C\c1ccc2ncccc2c1`, the GI50 is 4.07 µM in the assay on ACHN renal; 6.1 µM in the assay with HOP-62 NSCLC; 6.12 µM with HT29 colon; 5 µM in the assay on M14 melanoma; 4.51 µM in the assay with MDA-MB-435; 6.58 µM in the assay on OVCAR-5 ovarian. Besides, the GI50 with PC-3 prostate is 6.33 µM; with SF-539 CNS it was 2.87 µM; in the assay with SNB-19 CNS it was 7.04 µM; in the assay with UACC-257 melanoma, 3.74 µM. Moreover, the TGI came to 21.5 µM with ACHN renal; 18.9 µM in the assay on HOP-62 NSCLC; 21.2 µM in the assay on HT29 colon; 17 µM in the assay on M14 melanoma; 14.4 µM in the assay with MDA-MB-435; 23.9 µM with OVCAR-5 ovarian. Further, the TGI with PC-3 prostate is over 25 µM; in the assay on SF-539 CNS it was 8.59 µM; with SNB-19 CNS, over 25 µM; with UACC-257 melanoma, 12.4 µM.
Take `COc1cc2c(cc1C)NC(=O)/C2=C\c1ccc(Oc2ccccc2)cc1`: the GI50 is 15.6 µM in the assay on ACHN renal; 16.9 µM in the assay on HOP-62 NSCLC; 12.2 µM in the assay with HT29 colon; 15.1 µM in the assay with M14 melanoma; 17.8 µM in the assay on MDA-MB-435; 18.7 µM in the assay on OVCAR-5 ovarian. Further, the GI50 in the assay with PC-3 prostate was 12.4 µM; in the assay on SF-539 CNS, 17.9 µM; in the assay with SNB-19 CNS it was 17.8 µM; with UACC-257 melanoma, 17.7 µM. For the same compound, the TGI in the assay with ACHN renal was 29 µM; in the assay with HOP-62 NSCLC, 31 µM; with HT29 colon, 25.6 µM; in the assay with M14 melanoma it was 29.2 µM; with MDA-MB-435, 38.1 µM; with OVCAR-5 ovarian, 36.5 µM. For the same compound, the TGI in the assay on PC-3 prostate was 29.8 µM; in the assay with SF-539 CNS, 32.7 µM; in the assay with SNB-19 CNS, 32.9 µM; in the assay on UACC-257 melanoma, 34 µM.
